“Also recorded” adds a separate entry of the source.
Legend:
[1] = tested on: Xenopus laevis ooctyes; conditions: previously reported; cited from earlier work
[2] = tested on: human platelets; conditions: previously reported; cited from earlier work
[3] = molecular target: T1, human LPA2 (Homo sapiens, UniProt Q9HBW0); test: GTP[γ35S] binding, LPA2-transfected HEK293T cell membranes; type: biochemical; design: expressed in transfected cells; host or cells: HEK293T (transient); conditions: for antagonist activity at LPA2: block of LPA-induced GTP[γ35S] binding; for EC50: agonist activity, read-out: LP A2 EC50
T1 sequence (Q9HBW0 whole entry): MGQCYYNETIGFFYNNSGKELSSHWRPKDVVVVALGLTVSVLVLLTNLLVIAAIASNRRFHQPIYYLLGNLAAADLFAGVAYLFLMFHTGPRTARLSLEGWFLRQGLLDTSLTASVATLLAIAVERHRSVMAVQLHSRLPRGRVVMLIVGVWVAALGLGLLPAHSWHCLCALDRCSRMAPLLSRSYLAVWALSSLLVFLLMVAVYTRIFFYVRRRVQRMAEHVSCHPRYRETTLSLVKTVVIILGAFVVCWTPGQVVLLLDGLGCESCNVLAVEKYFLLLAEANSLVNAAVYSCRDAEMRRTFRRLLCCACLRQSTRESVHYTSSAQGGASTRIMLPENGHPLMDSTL
Method: (§1) The appropriate receptor plasmid DNA (encoding mouse LPA1, human LPA2 or human LPA3) was mixed with equal amounts of expression plasmids (pcDNA3) encoding a mutated (C351F) rat Gi2a, cow β1, and γ2 proteins and these DNAs were used to transfect monolayers of HEK293T cells (where ‘T’ indicates expression of the SV-40 virus large T antigen) using the calcium phosphate precipitate method. After about 60 hours, cells were harvested, membranes were prepared, aliquoted and stored at −70° C. until use.
(§2) The GTP[35 γS] assay was performed as described by us previously. Membranes containing 5 ug of protein were incubated in 0.1 ml GTP-binding buffer (in mM: HEPES 50, NaCl 100, MgCl2 10, pH7.5) containing […], […], 0.1 nM GTP[35 γS] (1200 Ci/mmol), and indicated lipid(s) for 30 minutes at 30° C. Samples were analyzed for membrane-bound radionuclide using a Brandel Cell Harvester (Gaithersburg, Md.).
(§3) Membranes prepared from these cells are used to measure GTPγ[^35S] binding as a function of test compound concentration. The resulting dose-response curves provide relative potency (EC50) and efficacy (Emax) for the test compounds.

[4] = molecular target: T2, mouse LPA1 (Mus musculus, UniProt P61793); test: GTP[γ35S] binding, LPA1-transfected HEK293T (or RH7777) cell membranes; type: biochemical; design: expressed in transfected cells; host or cells: HEK293T (transient); for part of the results RH7777 membranes; conditions: for antagonist activity at LPA1: block of LPA-induced GTP[γ35S] binding
T2 sequence (P61793 whole entry): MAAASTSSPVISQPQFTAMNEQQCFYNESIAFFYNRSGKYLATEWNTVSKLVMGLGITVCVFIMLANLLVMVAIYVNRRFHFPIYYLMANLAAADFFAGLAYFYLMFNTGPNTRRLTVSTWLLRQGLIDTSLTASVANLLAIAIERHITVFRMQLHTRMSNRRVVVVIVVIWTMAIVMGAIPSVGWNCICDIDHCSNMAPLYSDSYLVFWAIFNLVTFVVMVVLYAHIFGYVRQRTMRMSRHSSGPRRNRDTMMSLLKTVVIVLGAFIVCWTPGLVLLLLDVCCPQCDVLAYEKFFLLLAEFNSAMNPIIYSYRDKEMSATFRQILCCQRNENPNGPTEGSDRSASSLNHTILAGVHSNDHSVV
Method: as §1, §2
(§4) The X-intercept of the linear transformation is equal to the inverse log of the KI.
as §3

[5] = molecular target: T2, mouse LPA1; test: cAMP accumulation in RH7777 cells stably expressing LPA1; type: cell-based; design: expressed in transfected cells
Method: (§5) Assays for cAMP accumulation were conducted on populations of 5×10^5 cells stimulated with […] in the presence of the phosphodiesterase inhibitor isomethylbutylxanthine (IBMX) for 15 minutes at 30° C. cAMP was measured by automated radioimmunoassay.
Rat hepatoma RH7777 cell monolayers were transfected with the mLPAI plasmid DNA using the calcium phosphate precipitate method and clonal populations expressing the neomycin phosphotransferase gene were selected by addition of geneticin (G418) to the culture media. The RH7777 cells were grown in monolayers at 37° C. in a 5% CO02/95% air atmosphere in growth media consisting of: 90% MEM, 10% fetal bovine serum, 2 mM glutamine and 1 mM sodium pyruvate.
(§6) wls-b8L and the other phosphonates were also tested also for activity in three whole cell assays. […] Finally, the activity of wls-b8L in activating a chloride conductance in Xenopus laevis ooctyes was measured.

[6] = tested on: renal injury following ischemia-reperfusion; test: renal ischemia-reperfusion model; type: in vivo, C57BL6 mice; conditions: 1 mg/kg/2 hr
Method: C57BL6 mice (20 gm, 8 wks of age) were used for all studies. The surgical protocol of renal IR has been previously described (Okusa et al., 1999. Am J. Physiol. (Renal Physiol.) 277: F404–412; Okusa, et al., 2000 Am. J. Physiol. (Renal Physiol.) 279; F809–F818, and Okusa et al., 2001 Kidney Int. 59:2114–2125). For the injury protocol, bilateral flank incisions were made under anesthesia with a regimen that consists of ketamine (100 mg/kg, ip.), xylazine (10 mg/kg, ip.) and acepromazine (1 mg/kg, im.). Renal pedicles were exposed and cross-clamped for 27–32 min. Kidneys were examined for immediate reperfusion following clamp removal. Wounds were closed and mice were returned to cages. […] The mice were sacrificed and the kidneys harvested at 1, 4, 8, 24, 48 hrs, 5 and 7 days. […] Mice were sacrificed following 24 hrs of reperfusion and plasma was obtained for BUN and creatinine.

[7] = molecular target: T3, human LPA3 (Homo sapiens, UniProt Q9UBY5); test: GTP[γ35S] binding, LPA3-transfected HEK293T cell membranes; type: biochemical; design: expressed in transfected cells; host or cells: HEK293T (transient); conditions: for EC50: agonist activity, read-out: LP A3 EC50; for LP A3 Emax: efficacy compared to LPA (LPA = 100)
T3 sequence (Q9UBY5 1-353): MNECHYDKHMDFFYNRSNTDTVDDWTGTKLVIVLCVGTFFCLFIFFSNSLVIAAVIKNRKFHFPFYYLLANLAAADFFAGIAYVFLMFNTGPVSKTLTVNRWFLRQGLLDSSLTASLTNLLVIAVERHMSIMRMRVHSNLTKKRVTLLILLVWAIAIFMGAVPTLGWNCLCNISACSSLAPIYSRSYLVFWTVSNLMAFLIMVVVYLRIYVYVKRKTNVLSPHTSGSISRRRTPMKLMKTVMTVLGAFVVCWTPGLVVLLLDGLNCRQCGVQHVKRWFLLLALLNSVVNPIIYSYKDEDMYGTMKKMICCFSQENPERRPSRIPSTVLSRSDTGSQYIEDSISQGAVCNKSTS
Method: as §1, §2, §4, §3

[8] = tested on: LPA receptors; test: whole cell assays of calcium mobilization or inhibition of cAMP accumulation, agonist activity; type: cell-based
Method: as §5
A FLIPR™ (Molecular Devices, Inc.) was used to measure intracellular calcium in A431 and HEK293T cells. A431 cells were seeded (˜50,000 cells/well) in 96-well clear bottom black microplates (Corning Costar Corp., Cambridge, Mass.) and left overnight in CO2 incubator at 37° C. HEK293T cells were treated likewise, but seeded onto poly D-lysine coated microplates (Becton Dickinson, Franklin Lakes, N.J.). A431 cells were dye-loaded with 4 μM Fluo-3 AM ester (Molecular Probes Inc., Eugene, Oreg.) in a loading buffer (1×HBSS buffer, pH 7.4, containing 20 mM HEPES, 0.1% BSA, and 2.5 mM probenecid) for 1 hour at 37° C. Cells were then washed four times with the loading buffer and exposed in the FLIPR™ to sets of compounds. HEK293T cells were loaded with 2 μM Fluo-4 AM ester (Molecular Probes Inc., Eugene, Oreg.) in the same loading buffer without probenecid for 30 minutes and washed four times before being exposed to compounds in the FLIPR™. In all cases, each concentration of each compound was tested in at least quintuplicate.

[9] = molecular target: T4, human LPA1 (Homo sapiens, UniProt Q92633); test: GTP[γ35S] binding, baculovirus-infected insect Sf9 cell membrane preparation; type: biochemical
T4 construct: expressed in transfected cells; host or cells: Sf9 insect cells, recombinant baculovirus
T4 sequence (Q92633 whole entry): as the sequence (P61793 whole entry) above, with A4I, S8I, Q22P, Y40H, V61I, D193E, H194N, V269I, N331S, N335T counted along it
Method: The same activity was determined with human LPA1 using a recombinant baculovirus-infected insect Sf9 cell membrane preparation.

[10] = molecular target: T5, LPP3 (PAP2b) (Homo sapiens, UniProt O14495); test: LPP inhibition, competition with [32P]LPA; type: biochemical; conditions: for rank order of inhibition of the three LPPs: LPP1 (PAP2a), LPP2 (PAP2c), LPP3 (PAP2b)
T5 sequence (O14495 1-311): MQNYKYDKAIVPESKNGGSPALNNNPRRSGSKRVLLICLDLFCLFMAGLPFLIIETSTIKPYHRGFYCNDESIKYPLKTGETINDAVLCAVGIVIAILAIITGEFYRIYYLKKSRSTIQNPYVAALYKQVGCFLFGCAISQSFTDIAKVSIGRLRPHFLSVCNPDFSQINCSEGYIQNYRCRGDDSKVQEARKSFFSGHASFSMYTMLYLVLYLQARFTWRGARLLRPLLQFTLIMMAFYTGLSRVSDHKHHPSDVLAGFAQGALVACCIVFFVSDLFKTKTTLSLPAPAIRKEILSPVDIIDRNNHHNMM
Method: NOHPP was also tested for activity at the three cloned LPPs. Although the phosphonate head group eliminates the possibility of NOHPP acting as a substrate, it is possible that the compound could be a competitive inhibitor.

[11] = tested on: human platelets; test: platelet aggregation; type: cell-based; conditions: concentrations up to 10 micromolar
[12] = molecular target: T1, human LPA2; test: chloride conductance in Xenopus oocytes injected with human LPA2 mRNA; type: cell-based; design: expressed in transfected cells; host or cells: Xenopus laevis oocytes, mRNA injection; conditions: 10 μM applied to the oocyte surface
Method: as §6

[13] = tested on: Xenopus laevis ooctyes; test: chloride conductance / depolarization in Xenopus oocytes, endogenous receptor; type: cell-based; conditions: uninjected Xenopus oocytes
Method: as §6

[14] = molecular target: T3, human LPA3; test: chloride conductance in Xenopus oocytes injected with human LPA3 mRNA; type: cell-based; design: expressed in transfected cells; host or cells: Xenopus laevis oocytes, mRNA injection; conditions: 10 μM applied to the oocyte surface
Method: as §6

[15] = efficacy compared to LPA (LPA = 100)

CCCCCCCCCCCCCCCC(=O)N[C@@H](COP(=O)(O)O)C(=O)O [NASPA, N-palmitoyl serine phosphate]
oocyte depolarization (literature) [1]: antagonize | platelet aggregation (literature) [2]: antagonize

CCCCCCCC/C=C\CCCCCCCC(=O)N[C@H](COP(=O)(O)O)Cc1ccc(OCc2ccccc2)cc1 [VPC12249]
antagonist activity at LPA2 [3]: lack of antagonist activity | antagonist activity at LPA1 [4]: surmountable antagonist | block of the inhibition of forskolin-induced increases in cAMP levels ([5]; RH7777 cells stably expressing LPA1): inhibited | tissue preservation, H and E sections [6]: marked degree of tissue preservation | antagonist activity at LPA3 ([7]; block of LPA-induced GTP[γ35S] binding): surmountable antagonist | agonist activity in whole cell assays [8]: completely devoid of agonist activity | antagonist activity at human LPA1 [9]: same activity

1-acyl, 2-hydroxyl-sn-glycerol-3-phosphate [LPA, reference compound]
EC50 ([3]; GTP[γ35S] binding): 0.0068 µM | EC50 ([7]; GTP[γ35S] binding): 0.263 µM | LP A3 Emax [7]: 100

CCCCCCCC/C=C\CCCCCCCC(=O)N[C@@H](COP(=O)(O)O)Cc1ccc(OCc2ccc(CCCCC)cc2)cc1 [VPC31162]
antagonist activity at LPA2 [3]: antagonist activity | agonist activity / efficacy relative to LPA at LPA1 ([4]; GTP[γ35S] binding): agonist | agonist activity / efficacy relative to LPA at LPA3 ([7]; GTP[γ35S] binding): agonist

CCCCCCCC/C=C\CCCCCCCC(=O)NCCC(O)P(=O)(O)O (racemic) [NOHPP, (9Z)-N-(rac-3-hydroxy-3-phosphonopropyl)octadec-9-enamide]
rank order of inhibition of the three LPPs [10]: LPP3>LPP1>>LPP2 | rank order of inhibition of the three LPPs ([10]; listed as VPC12031): markedly better at the PAP2b (LPP3) than PAP2a (LPP1) which in turn is better than PAP2c (LPP2) | inhibition of LPP3 ([10]; NOHPP in competition with 50 nM [32P]LPA): inhibited | agonist activity / efficacy relative to LPA at LPA2 ([3]; GTP[γ35S] binding): as efficacious as; also recorded: fullly efficacious | agonist potency relative to LPA at LPA2 ([3]; GTP[γ35S] binding): somewhat less potent than; also recorded: about one log order less potent | agonist activity / efficacy relative to LPA at LPA1 ([4]; GTP[γ35S] binding): as efficacious as; also recorded: fullly efficacious | agonist potency relative to LPA at LPA1 ([4]; GTP[γ35S] binding): somewhat less potent than; also recorded: about one log order less potent | agonist activity / efficacy relative to LPA at LPA3 ([7]; GTP[γ35S] binding): far less efficacious; also recorded: little activity | agonist potency relative to LPA at LPA3 ([7]; GTP[γ35S] binding): distinctly less potent; also recorded: greater than two log orders less potent

CCCCCCCCCCCCCCCC(=O)N[C@@H](CCCC)COP(=O)(O)O [PNPA, N-palmitoyl-norleucinol-1-phosphate]
platelet aggregation (literature) [2]: aggregates human platelets without regard to stereoselectivity

CCCCCCCC/C=C\CCCCCCCC(=O)N[C@@H](COP(=O)(O)O)Cc1ccccc1 [VPC12084]
antagonist activity at LPA1 [4]: did block LPA activity | agonist activity in whole cell assays [8]: appreciable agonist activity

CCCCCCCC/C=C\CCCCCCCC(=O)NCCCP(=O)(O)O [wls-b8L, (9Z)-N-(3-phosphonopropyl)Octadec-9-enamide]
aggregation of human platelets [11]: does not elicit aggregation | receptor-type selectivity of agonist activity (LPA1 vs LPA2, LPA3) ([4]; GTP[γ35S] binding): more potent and efficacious at LPA1 than at either LPA2 or LPA3; also recorded: distinctly more selective regarding its agonist activity at a single LPA receptor (LPA1) | inhibition of cAMP accumulation (agonist efficacy) ([5]; concentration of 1 μM): fully efficacious | activation of chloride conductance, human LPA2 mRNA injected [12]: very modest response | activation of chloride conductance, endogenous receptor [13]: does not evoke this response | activation of chloride conductance, human LPA3 mRNA injected [14]: very modest response

CCCCCCCC/C=C\CCCCCCCC(=O)N[C@H](CN)COP(=O)(O)O [VPC12178]
agonist potency relative to LPA at LPA1 ([4]; GTP[γ35S] binding): more potent than 1-oleoyl LPA

CCCCCCCC/C=C\CCCCCCCC(=O)N[C@@H](CC)COP(=O)(O)O [VPC12115]
EC50 ([3]; GTP[γ35S] binding): 4.28 µM | LP A2 Emax [3, 15]: 85.6 | EC50 ([4]; agonist activity, GTP[γ35S] binding, read-out: LP A1 EC50): 1.58 µM | LP A1 Emax [4, 15]: 62.3 | EC50 ([7]; GTP[γ35S] binding): 4.98 µM | LP A3 Emax [7]: 89.3

CCCCCCCC/C=C\CCCCCCCC(=O)N[C@H](CO)COP(=O)(O)O [VPC31143]
agonist potency relative to LPA at LPA1 ([4]; GTP[γ35S] binding): more potent than 1-oleoyl LPA

CCCCCCCC/C=C\CCCCCCCC(=O)N[C@H](C)COP(=O)(O)O [VPC12086]
agonist potency relative to LPA at LPA1 ([4]; GTP[γ35S] binding): more potent than 1-oleoyl LPA; also recorded: more potent and efficacious than LPA

Reference: patent US7169818B2, “Lysophosphatidic acid receptor agonists and antagonists” (University of Virginia Patent Foundation, priority 2000, dated 2007)
